Values quoted from earlier work, collected in patent publication US20050025807A1, “Cured porous calcium phosphate material and uses thereof” (NATIONAL INSTITUTE OF ADVANCED INDUSTRIAL SCIENCE AND …, priority 2003, published 2005).

Settings: agitation 200 to 300 rpm at 30° C.; calculated by Nernst-Noyes-Whitney formula

## CCC1(c2ccccc2)C(=O)NC(=O)NC1=O [phenobarbitol]
  Thickness of diffusion layer: about 30 microns
